# Measured values: patent publication US12187681B2 (Shanghai East Hospital, priority 2019, dated 2025)
# How the values were obtained:
# Assay type in all cases: cell-based
# [1] = biological target: T1, CaV1.2 (L-type voltage-dependent calcium channel; CACNA1C, CACNB2, CACNA2D1) (Homo sapiens, UniProt Q13936); assay: CaV1.2 channel whole-cell patch clamp (Ion Channel Activity Measurement); details: human, room temperature; for inhibition at 5 min, 1 μM: pH 7.4, 1 μM test article; for inhibition at 5 min, 10 μM: pH 7.4, 10 μM test article, read-out: CaV 1.2 10 μM (ion-channel inhibition)
# T1 construct: expressed in transfected cells; host or cells: CHO
# T1 sequence (Q13936 1-2138 isoform Q13936-12): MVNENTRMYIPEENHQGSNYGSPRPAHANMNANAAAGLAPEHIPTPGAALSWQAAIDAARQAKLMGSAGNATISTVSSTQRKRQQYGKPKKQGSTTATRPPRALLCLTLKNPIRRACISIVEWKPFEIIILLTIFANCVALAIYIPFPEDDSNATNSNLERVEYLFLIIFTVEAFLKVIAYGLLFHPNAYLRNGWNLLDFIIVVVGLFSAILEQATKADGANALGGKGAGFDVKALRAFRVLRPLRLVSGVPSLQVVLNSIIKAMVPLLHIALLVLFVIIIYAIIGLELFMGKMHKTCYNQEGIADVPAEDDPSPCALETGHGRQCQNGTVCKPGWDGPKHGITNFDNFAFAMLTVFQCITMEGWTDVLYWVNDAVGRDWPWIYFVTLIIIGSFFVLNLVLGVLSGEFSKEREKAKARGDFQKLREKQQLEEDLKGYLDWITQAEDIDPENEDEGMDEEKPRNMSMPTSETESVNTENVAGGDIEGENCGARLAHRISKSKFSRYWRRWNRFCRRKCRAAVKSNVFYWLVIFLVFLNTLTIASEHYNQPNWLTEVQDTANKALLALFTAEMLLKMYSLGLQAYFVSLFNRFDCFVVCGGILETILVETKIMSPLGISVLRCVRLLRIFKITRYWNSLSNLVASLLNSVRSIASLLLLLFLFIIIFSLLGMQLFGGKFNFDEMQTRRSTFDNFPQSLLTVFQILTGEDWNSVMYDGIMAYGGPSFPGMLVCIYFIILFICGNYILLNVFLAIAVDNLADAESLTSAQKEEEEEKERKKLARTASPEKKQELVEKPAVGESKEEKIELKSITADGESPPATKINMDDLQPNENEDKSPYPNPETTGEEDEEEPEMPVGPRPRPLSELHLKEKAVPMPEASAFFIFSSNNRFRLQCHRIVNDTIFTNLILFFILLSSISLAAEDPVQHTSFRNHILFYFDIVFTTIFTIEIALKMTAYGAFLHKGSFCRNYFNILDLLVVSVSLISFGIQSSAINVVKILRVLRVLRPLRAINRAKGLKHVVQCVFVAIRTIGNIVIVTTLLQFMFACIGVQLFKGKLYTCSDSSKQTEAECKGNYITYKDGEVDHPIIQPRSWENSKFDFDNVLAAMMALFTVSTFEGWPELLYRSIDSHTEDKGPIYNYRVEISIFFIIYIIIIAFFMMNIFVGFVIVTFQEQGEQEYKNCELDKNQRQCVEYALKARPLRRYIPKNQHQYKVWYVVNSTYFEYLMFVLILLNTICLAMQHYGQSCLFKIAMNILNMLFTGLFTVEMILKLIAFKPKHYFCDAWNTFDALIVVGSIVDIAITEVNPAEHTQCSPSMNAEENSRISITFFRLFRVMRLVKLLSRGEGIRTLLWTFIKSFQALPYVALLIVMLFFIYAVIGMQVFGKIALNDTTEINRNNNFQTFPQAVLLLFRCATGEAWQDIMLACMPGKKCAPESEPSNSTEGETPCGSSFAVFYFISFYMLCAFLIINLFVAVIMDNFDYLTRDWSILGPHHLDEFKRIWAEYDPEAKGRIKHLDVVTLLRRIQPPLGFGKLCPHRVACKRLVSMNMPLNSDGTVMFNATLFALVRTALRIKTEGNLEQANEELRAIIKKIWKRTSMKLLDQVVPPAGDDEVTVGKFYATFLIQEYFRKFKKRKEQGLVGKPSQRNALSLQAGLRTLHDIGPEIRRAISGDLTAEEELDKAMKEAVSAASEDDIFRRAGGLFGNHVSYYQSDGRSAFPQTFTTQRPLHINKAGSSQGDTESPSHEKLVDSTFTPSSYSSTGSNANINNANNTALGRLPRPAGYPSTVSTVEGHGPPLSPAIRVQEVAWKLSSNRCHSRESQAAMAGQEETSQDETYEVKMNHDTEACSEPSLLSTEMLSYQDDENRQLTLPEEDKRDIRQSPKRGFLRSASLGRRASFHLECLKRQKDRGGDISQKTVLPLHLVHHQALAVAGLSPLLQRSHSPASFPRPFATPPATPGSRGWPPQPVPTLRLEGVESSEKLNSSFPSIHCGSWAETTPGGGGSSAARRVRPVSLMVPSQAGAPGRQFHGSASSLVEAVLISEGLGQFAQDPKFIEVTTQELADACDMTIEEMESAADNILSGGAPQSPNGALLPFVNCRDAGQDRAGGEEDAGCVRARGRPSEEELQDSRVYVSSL
# T1 sequence (Q08289 1-605 isoform Q08289-2 partner): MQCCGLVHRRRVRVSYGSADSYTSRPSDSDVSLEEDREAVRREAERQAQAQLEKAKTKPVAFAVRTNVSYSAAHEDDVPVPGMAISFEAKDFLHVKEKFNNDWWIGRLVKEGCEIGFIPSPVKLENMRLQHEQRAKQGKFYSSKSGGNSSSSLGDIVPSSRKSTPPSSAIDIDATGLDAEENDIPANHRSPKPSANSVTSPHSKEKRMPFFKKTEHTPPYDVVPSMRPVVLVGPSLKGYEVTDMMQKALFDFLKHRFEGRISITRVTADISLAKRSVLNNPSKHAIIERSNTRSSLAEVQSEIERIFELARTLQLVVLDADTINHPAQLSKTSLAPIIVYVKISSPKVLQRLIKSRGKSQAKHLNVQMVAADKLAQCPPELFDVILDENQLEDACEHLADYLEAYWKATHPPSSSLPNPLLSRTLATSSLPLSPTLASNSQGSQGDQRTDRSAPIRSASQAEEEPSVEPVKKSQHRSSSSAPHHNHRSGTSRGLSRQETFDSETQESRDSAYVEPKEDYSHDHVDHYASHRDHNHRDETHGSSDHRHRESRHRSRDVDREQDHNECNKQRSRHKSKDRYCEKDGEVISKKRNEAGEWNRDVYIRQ
# T1 sequence (P54289 25-1091 isoform P54289-2 partner limits assumed): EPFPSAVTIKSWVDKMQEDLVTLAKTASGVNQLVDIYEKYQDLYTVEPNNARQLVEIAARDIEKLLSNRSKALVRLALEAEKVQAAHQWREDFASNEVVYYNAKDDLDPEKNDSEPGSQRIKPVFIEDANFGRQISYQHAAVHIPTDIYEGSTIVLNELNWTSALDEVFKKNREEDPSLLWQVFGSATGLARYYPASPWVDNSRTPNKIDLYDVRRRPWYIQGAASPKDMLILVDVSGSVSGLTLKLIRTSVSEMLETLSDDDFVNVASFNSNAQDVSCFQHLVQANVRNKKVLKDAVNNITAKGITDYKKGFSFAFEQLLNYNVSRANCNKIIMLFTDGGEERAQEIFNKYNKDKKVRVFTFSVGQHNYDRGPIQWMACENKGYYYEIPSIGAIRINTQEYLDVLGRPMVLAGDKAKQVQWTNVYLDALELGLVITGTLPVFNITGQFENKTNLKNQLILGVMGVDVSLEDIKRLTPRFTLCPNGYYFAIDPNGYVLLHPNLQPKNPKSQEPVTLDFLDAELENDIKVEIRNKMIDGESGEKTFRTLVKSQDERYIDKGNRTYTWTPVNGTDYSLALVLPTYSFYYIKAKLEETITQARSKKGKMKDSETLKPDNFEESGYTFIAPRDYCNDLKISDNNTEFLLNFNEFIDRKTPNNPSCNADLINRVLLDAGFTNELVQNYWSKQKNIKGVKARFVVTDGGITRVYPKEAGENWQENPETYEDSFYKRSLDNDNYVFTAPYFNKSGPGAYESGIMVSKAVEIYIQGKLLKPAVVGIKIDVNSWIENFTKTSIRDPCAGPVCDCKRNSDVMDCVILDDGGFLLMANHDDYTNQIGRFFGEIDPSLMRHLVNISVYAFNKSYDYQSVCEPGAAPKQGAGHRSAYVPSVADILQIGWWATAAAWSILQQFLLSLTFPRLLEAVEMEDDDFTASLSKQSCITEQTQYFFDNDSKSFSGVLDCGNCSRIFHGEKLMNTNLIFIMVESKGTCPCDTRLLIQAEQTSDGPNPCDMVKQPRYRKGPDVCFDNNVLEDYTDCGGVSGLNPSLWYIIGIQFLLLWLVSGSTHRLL
# T1 sequence (P54289 957-1103 partner limits assumed): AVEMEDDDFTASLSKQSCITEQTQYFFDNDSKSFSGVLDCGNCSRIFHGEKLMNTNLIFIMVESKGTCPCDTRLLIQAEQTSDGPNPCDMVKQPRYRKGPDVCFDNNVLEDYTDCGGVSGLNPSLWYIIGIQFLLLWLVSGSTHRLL
# Summary of the method: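 Whole-cell patch clamp was run on CHO cells stably expressing CACNA1C/CACNB2/CACNA2D1 at 23–25 °C, with 10 mM CaCl2 TEA bath (pH 7.4) and CsCl pipette solution (pH 7.2). Currents were evoked from −80 mV to +10 mV for 0.3 s every 20 s without leak subtraction. Ascending concentrations were each applied for 5 min or until steady state.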
# [2] = biological target: T2, hERG (human ether-a-go-go related gene potassium channel, KCNH2) (Homo sapiens, UniProt Q12809); assay: hERG channel whole-cell patch clamp (Ion Channel Activity Measurement); details: human, HEK293 cells expressing the human ERG potassium channel, room temperature; for inhibition at 1 μM: pH 7.4, 1 μM test article; for inhibition at 10 μM: pH 7.4, 10 μM test article
# T2 construct: expressed in transfected cells; host or cells: HEK293
# T2 sequence (Q12809 whole entry): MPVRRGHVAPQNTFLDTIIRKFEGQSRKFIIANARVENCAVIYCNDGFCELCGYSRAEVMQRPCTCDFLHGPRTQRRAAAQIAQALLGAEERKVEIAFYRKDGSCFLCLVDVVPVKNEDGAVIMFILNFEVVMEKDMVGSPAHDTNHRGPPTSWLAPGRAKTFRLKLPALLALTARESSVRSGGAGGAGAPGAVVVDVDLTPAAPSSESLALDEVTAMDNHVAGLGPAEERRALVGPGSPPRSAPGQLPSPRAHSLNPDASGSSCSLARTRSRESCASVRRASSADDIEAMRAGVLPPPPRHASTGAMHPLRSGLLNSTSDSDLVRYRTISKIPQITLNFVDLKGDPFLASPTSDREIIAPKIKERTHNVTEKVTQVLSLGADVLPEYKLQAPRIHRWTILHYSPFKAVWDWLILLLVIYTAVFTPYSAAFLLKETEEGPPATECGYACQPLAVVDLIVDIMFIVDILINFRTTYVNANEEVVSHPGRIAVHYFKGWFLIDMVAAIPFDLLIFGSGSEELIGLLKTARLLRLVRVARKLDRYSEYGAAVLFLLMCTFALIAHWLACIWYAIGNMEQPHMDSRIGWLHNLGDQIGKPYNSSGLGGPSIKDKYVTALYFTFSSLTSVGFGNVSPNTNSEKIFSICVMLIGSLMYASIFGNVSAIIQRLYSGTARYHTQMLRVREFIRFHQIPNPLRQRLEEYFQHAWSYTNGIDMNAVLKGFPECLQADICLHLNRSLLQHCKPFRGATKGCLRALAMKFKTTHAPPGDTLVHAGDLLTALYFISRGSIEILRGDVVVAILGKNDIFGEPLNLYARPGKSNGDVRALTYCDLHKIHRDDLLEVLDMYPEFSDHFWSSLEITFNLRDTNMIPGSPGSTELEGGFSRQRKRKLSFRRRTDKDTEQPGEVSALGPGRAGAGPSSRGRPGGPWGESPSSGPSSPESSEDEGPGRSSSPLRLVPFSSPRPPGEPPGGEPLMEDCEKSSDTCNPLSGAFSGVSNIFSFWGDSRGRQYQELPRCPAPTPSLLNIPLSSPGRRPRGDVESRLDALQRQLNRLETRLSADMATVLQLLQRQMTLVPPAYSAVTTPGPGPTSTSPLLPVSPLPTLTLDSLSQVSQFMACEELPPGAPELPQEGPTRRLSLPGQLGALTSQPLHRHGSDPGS
# Summary of the method: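 HEK293 cells stably expressing hERG (NM_000238) were recorded by whole-cell patch clamp at 23-25° C. Holding potential −80 mV, step to 30 mV for 2.5 s, tail currents at −50 mV for 4 s, pulses every 10 s. Each concentration was perfused low to high for 5 min or to steady state, with each cell as its own control.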
# [3] = biological target: T3, Iks potassium channel (KCNQ1/KCNE1) (Homo sapiens, UniProt P51787); assay: Iks channel whole-cell patch clamp (Ion Channel Activity Measurement); details: human, CHO cells stably expressing Iks channel (KCNQ1 and KCNE1), room temperature; for inhibition at 5 min, 1 μM: pH 7.4, 1 μM test article; for inhibition at 5 min, 10 μM: pH 7.4, 10 μM test article
# T3 construct: expressed in transfected cells; host or cells: CHO
"inhibition at 5 min, 1 μM [3]","inhibition at 5 min, 10 μM [3]",Compound,"inhibition at 5 min, 1 μM [1]","inhibition at 5 min, 10 μM [1]",inhibition at 1 μM [2],inhibition at 10 μM [2]
< 25%,50 to 75%,"CCN(CC)CCOc1ccc2ccccc2c1Sc1c(OC)ccc2ccccc12 [Compound A152, N,N-diethyl-2-((1-((2-methoxynaphthalen-1-yl)thio)naphthalen-2-yl)oxy)ethan-1-amine]",< 25%,75 to 100%,75 to 100%,–
50 to 75%,75 to 100%,"Oc1ccc2ccccc2c1Cc1c(O)ccc2ccccc12 [Compound A001, 1,1′-methylenebis(naphthalen-2-ol)]",< 25%,75 to 100%,< 25%,75 to 100%
< 25%,25 to 50%,"[O-][S+](c1c(O)ccc2ccccc12)c1c(O)ccc2ccccc12 [Compound A006, 1,1′-sulfinylbis(naphthalen-2-ol)]",< 25%,< 25%,< 25%,< 25%
25 to 50%,75 to 100%,"CCN(CC)CCOc1ccc2ccccc2c1Sc1c(O)ccc2ccccc12 [Compound A151, 1-((2-(2-(diethylamino)ethoxy)naphthalen-1-yl)thio)naphthalen-2-ol]",< 25%,75 to 100%,75 to 100%,75 to 100%
25 to 50%,–,"Oc1ccc2ccccc2c1Cc1cccc2ccccc12 [Compound A052, 1-(naphthalen-1-ylmethyl)naphthalen-2-ol]",< 25%,75 to 100%,< 25%,75 to 100%
25 to 50%,75 to 100%,"Oc1ccc2ccccc2c1Cc1c(OCCN2CCCC2)ccc2ccccc12 [Compound A129, 1-((2-(2-(pyrrolidin-1-yl)ethoxy)naphthalen-1-yl)methyl)naphthalen-2-ol]",25 to 50%,75 to 100%,75 to 100%,–
25 to 50%,50 to 75%,"CN(c1c(O)ccc2ccccc12)c1c(O)ccc2ccccc12 [Compound A003, 1,1′-(methylazanediyl)bis(naphthalen-2-ol)]",< 25%,25 to 50%,25 to 50%,75 to 100%
< 25%,< 25%,"COc1ccc2ccccc2c1Cc1c(O)ccc2ccccc12 [Compound A014, 1-((2-methoxynaphthalen-1-yl)methyl)naphthalen-2-ol]",< 25%,50 to 75%,< 25%,75 to 100%
< 25%,< 25%,"COc1ccc2ccccc2c1Cc1c(OC)ccc2ccccc12 [Compound A015, bis(2-methoxynaphthalen-1-yl)methane]",–,–,–,–
< 25%,25 to 50%,"COc1ccc2ccccc2c1C(O)c1c(OC)ccc2ccccc12 [Compound A040, bis(2-methoxynaphthalen-1-yl)methanol]",–,–,–,–
< 25%,< 25%,"Oc1ccccc1Cc1ccccc1O [Compound A016, 2,2′-methylenediphenol]",–,–,–,–
25 to 50%,25 to 50%,"O=S(=O)(c1c(O)ccc2ccccc12)c1c(O)ccc2ccccc12 [Compound A005, 1,1′-sulfonylbis(naphthalen-2-ol)]",–,–,–,–
–,–,"CC(C)c1cc2ccccc2c(Cc2c(O)c(C(C)C)cc3ccccc23)c1O [Compound A081, 1,1′-methylenebis(3-isopropylnaphthalen-2-ol)]",< 25%,25 to 50%,< 25%,50 to 75%
